ChEMBL document CHEMBL3751791, “Alkenes with antioxidative activities from Murraya koenigii (L.) Spreng” (Bioorg Med Chem Lett, 2016)

Experiment: Antioxidative activity of the compound assessed as DPPH radical scavenging activity
Format: physicochemical

Row | Structure (SMILES) | IC50 [µM]
1 | C=C[C@](C)(O)CC/C=C(C)/C=C/[C@@H](O[C@H]1O[C@@H](CO)[C@H](O)[C@@H](O)[C@@H]1O)C(C)(C)O | 38.4
2 | CC/C=C/C[C@H](O)/C=C/[C@H](O)[C@H](O)[C@H](O)CCCCC[C@H](C)O | 25.4
3 | C=C[C@](C)(O)C[C@@H](O)/C=C(\C)[C@@H](O)CC=C(C)C | 23.5

The next lines start with the values.

Row | IC50 [µM] | Structure (SMILES)
4 | 40.2 | C=C[C@](C)(CC/C=C(\CO)CC/C=C(\C)C[C@@H](O)/C=C(\C)C(=O)O)O[C@H]1O[C@@H](CO)[C@H](O)[C@@H](O)[C@@H]1O
5 | 56.4 | O=C(/C=C/c1ccc(O)c(O)c1)O[C@@H]1C[C@](O)(C(=O)O)C[C@@H](O)[C@H]1O [CHLOROGENIC ACID]
